Data from patent US20240287138A1, “CYCLIC PEPTIDES FOR INHIBITING TNF RECEPTOR 1 ACTIVITY” (Merck Sharp & Dohme LLC, priority 2023, published 2024).
Like-named read-outs stand apart in the source and are kept apart here. Numbered stars: 1 amine (or outer) side, 2 acyl side, 3 side chain; on linkers, the order of the positions; unused ones are H or OH. Bridge positions count the residues as written; N and C are the ends. Square brackets hold non-standard residues; d marks the D form. Peptide text beside a SMILES is read from it. * marks the point of attachment. Trp(βS-Me,7-OMe) = COc1cccc2c([C@H](C)[C@H](N)C(=O)O)c[nH]c12; Ala(1-bicyclo(1.1.1)pentyl) = N[C@@H](CC12CC(C1)C2)C(=O)O; Ala(indazol-1-yl) = N[C@@H](Cn1ncc2ccccc21)C(=O)O; Trp(7-Cl) = N[C@@H](Cc1c[nH]c2c(Cl)cccc12)C(=O)O; Phe(4-CONH2) = NC(=O)c1ccc(C[C@H](N)C(=O)O)cc1; Phe(4-COOH) = N[C@@H](Cc1ccc(C(=O)O)cc1)C(=O)O; Trp(7-aza) = N[C@@H](Cc1c[nH]c2ncccc12)C(=O)O; Phe(4-CH2NH2) = NCc1ccc(C[C@H](N)C(=O)O)cc1; Pip(5R-OH) = O=C(O)[C@@H]1CC[C@@H](O)CN1; X1 = O=C([C@@H]1CC[C@H](N[*:1])C1)[*:2]; NHCH2CH2SCH2CO = O=C(CSCCN[*:1])[*:2]; Pip(4-aza) = O=C(O)[C@@H]1CNCCN1; hPhe = N[C@@H](CCc1ccccc1)C(=O)O; 4Pal = N[C@@H](Cc1ccncc1)C(=O)O; NMeE = CN[C@@H](CCC(=O)O)C(=O)O; dHyp = O=C(O)[C@H]1C[C@H](O)CN1; αMeS = C[C@](N)(CO)C(=O)O; Carboxymethyl = O=C(O)C*; NMeA = CN[C@@H](C)C(=O)O; Nle = CCCC[C@H](N)C(=O)O; Sar = CNCC(=O)O

Columns and labels:
[1] = molecular target: T1, human TNFR1 extracellular domain (ECD) protein (Homo sapiens, UniProt P19438); experiment: SPR binding affinity to captured human TNFR1 ECD
T1 construct: HRV 3C protease cleavage site (C); 6His (C, cleaved yes); made in house; host or cells: Sf21 insect cells (baculovirus), secreted
T1 sequence (P19438 30-211): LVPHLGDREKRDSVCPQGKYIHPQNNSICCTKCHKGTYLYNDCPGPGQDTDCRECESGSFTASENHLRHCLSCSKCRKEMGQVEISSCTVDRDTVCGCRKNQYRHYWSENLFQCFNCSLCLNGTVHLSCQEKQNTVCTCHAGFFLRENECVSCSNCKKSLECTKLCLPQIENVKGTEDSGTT
Procedure: (§1) B. Procedure for Binding Affinity and Selectivity measured by SPR
(§2) Affinity and selectivity for hTNFR1 and TNFR2 was determined using SPR. Human TNFR1 or TNFR2 genes (extracellular domain only) were synthesized with a C-terminal Avi-tag, HRV 3C protease cleavage site followed by a 6His-tag for affinity purification. The final gene product was cloned into pBAC™-1 vector (Millipore Sigma) for expression testing in insect cells. Constructs were transfected into Sf21 cells for baculovirus generation followed by protein expression analysis in Sf21 and Tni cell lines. Large scale expression in Sf21 cells was performed using baculovirus infected insect cells (BIICs) infected at a MOI=2.0 grown for 72 h. Target proteins secreted into the media were harvested via centrifugation and concentrated using diafiltration. TNFR was purified by immobilized metal ion affinity chromatography (IMAC) using a Ni-Sepharose HisTrap™ column (Cytiva™). Isolated TNFR had His tag removed using HRV 3C protease followed by additional purification using Ni-NTA chromatography. Biotinylation was performed on Ni-NTA flow-through fractions concentrated to 45 μM and treated with BirA ligase (1:100, μg/μg ratio) in 50 mM Tris pH 7.5, 150 mM NaCl, 50 μM biotin, 10 mM magnesium acetate, 10 mM ATP at 4° C. for 20 h. Final purification of biotin-TNFR and buffer exchange into 20 mM HEPES pH 7.5, 150 mM NaCl was performed using a HiLoad® Superdex® 200 26/60 column (Cytiva™). Highly purified protein was aliquoted and stored at −80° C.
(§3) The SPR assay uses a Cytiva™ 8K or 8K+ biosensor instrument to measure the kinetics of peptide analytes binding to captured human TNFR1 extracellular domain (ECD) protein; peptide analytes are also evaluated for any off-target binding to human TNFR2 ECD protein in parallel. Recombinant human TNFR1 ECD and human TNFR2 ECD proteins, biotinylated via engineered C-terminal avi-tags, are immobilized to a regenerable streptavidin biosensor chip surface (Cytiva™ Biotin CAPture kit, Series S; cat. #28920234). Peptide analytes binding to immobilized human TNFR1 ECD protein and their subsequent dissociation are conducted in a buffer of 10 mM HEPES pH 7.4, 150 mM NaCl, 3 mM EDTA, 0.05% P20,2% DMSO under laminar flow conditions and measured in response units (RU), which are directly proportional to the accumulated mass on the surface of the biosensor chip; the biosensor chip surface is regenerated via Cytiva™ proprietary methods between the evaluation of each peptide analyte. […] The SPR assay determines the association and dissociation rate constants, kon and koff, for each peptide analyte and, from these values, calculates the binding affinity, […] reported in Table 2.

human TNFR2 ECD protein = molecular target: T2, human TNFR2 ECD protein (Homo sapiens, UniProt P20333); experiment: SPR off-target binding (selectivity) to human TNFR2 ECD
T2 construct: HRV 3C protease cleavage site (C); 6His (C, cleaved yes); made in house; host or cells: Sf21 insect cells (baculovirus), secreted
T2 sequence (P20333 23-257): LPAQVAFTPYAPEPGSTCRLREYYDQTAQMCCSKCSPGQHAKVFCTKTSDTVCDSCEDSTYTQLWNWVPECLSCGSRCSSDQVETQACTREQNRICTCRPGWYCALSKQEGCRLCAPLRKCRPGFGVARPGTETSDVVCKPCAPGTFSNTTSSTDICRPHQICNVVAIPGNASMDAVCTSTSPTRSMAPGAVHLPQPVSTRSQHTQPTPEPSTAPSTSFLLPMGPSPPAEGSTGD
Procedure: as §1, §2, §3

[2] = molecular target: T3, TNFα-induced NF-κB signal transduction pathway (TNFR1 signaling) in THP-1 cells (Homo sapiens, UniProt P19438); experiment: THP-1 Lucia NF-κB reporter cell assay, inhibition of TNFα-induced NF-κB signaling; format: cell-based; conditions: THP-1 NF-κB Lucia reporter cells, 10 ng/mL TNFα, 16-18 h, secreted luciferase; read-out: THP-1 IC50
T3 sequence (P19438 30-455): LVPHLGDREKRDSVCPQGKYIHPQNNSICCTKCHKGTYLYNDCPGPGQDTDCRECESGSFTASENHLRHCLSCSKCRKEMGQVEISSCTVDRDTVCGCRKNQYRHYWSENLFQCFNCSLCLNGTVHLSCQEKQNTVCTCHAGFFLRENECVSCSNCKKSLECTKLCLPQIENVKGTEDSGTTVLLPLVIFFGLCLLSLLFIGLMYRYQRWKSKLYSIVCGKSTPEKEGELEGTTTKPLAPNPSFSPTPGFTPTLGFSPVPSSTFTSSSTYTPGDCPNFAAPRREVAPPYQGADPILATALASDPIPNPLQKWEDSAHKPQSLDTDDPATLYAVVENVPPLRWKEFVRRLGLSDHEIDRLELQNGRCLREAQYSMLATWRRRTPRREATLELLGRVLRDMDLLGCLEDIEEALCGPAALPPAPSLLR
How it was run: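 IC50 from a 4-parameter logistic fit of secreted luciferase luminescence (QUANTI-Luc), normalised to min/max controls. Reporter THP-1 cells were exposed to peptides for 1 h at 37 °C before 10 ng/mL TNFα (final) was added overnight (16–18 h).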

Structure (SMILES) | Kd [1] [nM] | Kd (human TNFR2 ECD protein) [nM] | IC50 [2] [nM] | Kd ([1]; biotinylated human TNFR1 ECD on streptavidin chip, from kon and koff, read-out: SPR hTNFR1 KD) [nM] | Kd (human TNFR2 ECD protein; biotinylated human TNFR2 ECD on streptavidin chip, read-out: SPR hTNFR2 KD) [nM]
CCCC[C@@H]1NC(=O)CSC[C@@H](C(N)=O)NC(=O)[C@H]([C@@H](C)c2c[nH]c3c(OC)cccc23)NC(=O)CN(C)C(=O)[C@H](Cc2ccc(O)cc2)NC(=O)[C@H](Cc2ccc(C(=O)O)cc2)NC(=O)[C@](C)(CO)NC(=O)[C@H](Cc2c[nH]c3c(Cl)cccc23)NC(=O)[C@H](Cc2ccncc2)NC(=O)[C@H](CC(N)=O)NC(=O)[C@H](CCC(=O)O)N(C)C(=O)[C@H](Cc2c[nH]c3ncccc23)NC(=O)[C@@H]2CNCCN2C(=O)[C@H](CC23CC(C2)C3)NC1=O [SEQ ID NO. 33] ({CH2CO}-[Nle][Ala(1-bicyclo(1.1.1)pentyl)][Pip(4-aza)][Trp(7-aza)][NMeE]N[4Pal][Trp(7-Cl)][αMeS][Phe(4-COOH)]Y[Sar][Trp(βS-Me,7-OMe)]C-NH2; thioether N-14) | 0.3 | > 1000 | 6.8 | – | –
C[C@H]1C(=O)N[C@@H](CC(N)=O)C(=O)N[C@@H](Cc2ccncc2)C(=O)N[C@@H](Cc2c[nH]c3ccccc23)C(=O)N[C@@](C)(CO)C(=O)N[C@@H](Cc2ccc(C(=O)O)cc2)C(=O)N[C@@H](Cc2ccc(O)cc2)C(=O)N(C)CC(=O)N[C@@H](Cc2c[nH]c3ccccc23)C(=O)N[C@H](C(N)=O)CSCC(=O)N[C@@H](CCc2ccccc2)C(=O)N[C@@H](Cc2ccc(O)cc2)C(=O)N[C@@H](CO)C(=O)N[C@@H](Cn2ncc3ccccc32)C(=O)N1C [SEQ ID NO. 265] ({CH2CO}-[hPhe]YS[Ala(indazol-1-yl)][NMeA]N[4Pal]W[αMeS][Phe(4-COOH)]Y[Sar]WC-NH2; thioether N-14) | – | – | 4.9 | 1 | > 1000
CCCC[C@@H]1NC(=O)CSCCNC(=O)[C@H]([C@@H](C)c2c[nH]c3c(OC)cccc23)NC(=O)CN(C)C(=O)[C@H](Cc2ccc(O)cc2)NC(=O)[C@H](Cc2ccc(C(=O)O)cc2)NC(=O)[C@](C)(CO)NC(=O)[C@H](Cc2c[nH]c3c(Cl)cccc23)NC(=O)[C@H](Cc2ccncc2)NC(=O)[C@H](CC(N)=O)NC(=O)[C@H](CCC(=O)O)N(C)C(=O)[C@H](Cc2c[nH]c3ncccc23)NC(=O)[C@H](CO)NC(=O)[C@H](Cc2ccc(CN)cc2)NC1=O [SEQ ID NO. 258] (cyclo([4Pal][Trp(7-Cl)][αMeS][Phe(4-COOH)]Y[Sar][Trp(βS-Me,7-OMe)][NHCH2CH2SCH2CO][Nle][Phe(4-CH2NH2)]S[Trp(7-aza)][NMeE]N)) | 0.2 | > 1000 | 11.5 | – | –
CCCC[C@@H]1NC(=O)[C@@H]2CC[C@@H](C2)NC(=O)[C@H]([C@@H](C)c2c[nH]c3c(OC)cccc23)NC(=O)CN(C)C(=O)[C@H](Cc2ccc(OCC(=O)O)cc2)NC(=O)[C@H](Cc2ccc(C(N)=O)cc2)NC(=O)[C@](C)(CO)NC(=O)[C@H](Cc2c[nH]c3c(Cl)cccc23)NC(=O)[C@H](Cc2ccc(OCC(=O)O)cc2)NC(=O)[C@H](CC(N)=O)NC(=O)[C@H]2C[C@H](O)CN2C(=O)[C@H](Cc2c[nH]c3ccccc23)NC(=O)[C@@H]2CC[C@@H](O)CN2C(=O)[C@H](Cc2ccncc2)NC1=O [SEQ ID NO. 3] (cyclo([4Pal][Pip(5R-OH)]W[dHyp]NY(Carboxymethyl)[Trp(7-Cl)][αMeS][Phe(4-CONH2)]Y(Carboxymethyl)[Sar][Trp(βS-Me,7-OMe)][X1][Nle])) | 0.04 | > 1000 | 0.5 | – | –
